Test results: patent US20240409878A1, “SYSTEM AND METHOD FOR PRESERVING ALGAE” (Macro Oceans Inc., priority 2023, published 2024)

System: algae sample
Experiment: preservation of an algae sample in a preserving solution
Design: species or system algae (e.g., sugar kelp, ribbon kelp, bull kelp, brown alga)
Settings: for preservation of the algae by the preserving solution: for the target preserving duration; for critical preservation solution concentration: temperature excursions between 0° F. and 140° F., wet mass basis relative to algae mass
Description: The critical preservation solution concentration can depend on the amount of time the algae sample is to be preserved for, a preservation temperature, an algae species (or other taxonomical rank such as phylum, class, order, family, genus, intermediate ranks therebetween associated with the algae), humidity, moisture content, wet mass content of the algae sample (e.g., composition of the wet mass of the algae sample), dry mass content of the algae sample (e.g., composition of the dry mass of the algae sample), and/or other suitable. […] However, other critical values can be determined and/or arrived at (e.g., by controlling temperature excursions particularly high temperature range, for different types of algae, using a mixture of preserving agents to reduce the concentration of any single preserving agent, based on the amount of time to preserve the algae, etc.).
Preserving the received algae sample S300 preferably functions to extend a lifetime of the algae sample without significant degradation of the algae sample and/or products thereof or derived therefrom. S300 can preserve an as received algae sample (e.g., from S100, fresh harvested algae sample, etc.), a processed algae sample (e.g., from S200, an algae sample that was received after one or more processing steps such as in S200 or S400 has been performed, etc.), a previously preserved algae sample (e.g., preserved according to S300, preserved in a manner different from S300, dried algae sample, etc.), and/or any suitable algae sample.
The algae sample is typically not agitated (e.g., mixed) during (e.g., throughout) preservation (e.g., to simplify the preservation process). Alternatively stated, the algae sample is preferably mixed at most only once (e.g., at the beginning of S300 to homogenize the preserving solution and algae sample) and remains unmixed thereafter. However, the algae sample can be agitated during preservation (e.g., according to a schedule, at predetermined times, at a predetermined frequency, etc.).
The algae sample is typically preserved at approximately room temperature (e.g., an ambient temperature of an environment the algae sample is stored at). For instance, the algae sample can be preserved at a temperature between about 50° F. to 110° F. However, the algae sample can be stored at an elevated temperature (e.g., >110° F.), at a refrigeration temperature (e.g., 30-50° F.), freezing temperature (e.g., <about 30° F.), and/or at any suitable temperature. In some variants, the preserved algae sample can undergo temperature excursions as cold as about 0° F. and as high as 140° F. However, additionally or alternatively, the temperature can be controlled to within a target temperature range (e.g., a preservation temperature, a preservation temperature excursion range, etc.).
The algae sample is typically not fully sealed during preservation (e.g., evaporation of solvent, preservative, etc. can occur such as because the sample is loosely covered). […] For example, the algae sample can be preserved in a container where a lid is placed on the container to close the container but where the lid need not form a seal (e.g., is not a hermetic lid).

Compound	preservation of the algae by the preserving solution (less than 9% carbonate (e.g., 5%))	critical preservation solution concentration (preserve for 2 months or less)	preservation of the algae by the preserving solution (less than 0.5% benzoate (e.g., 0.1%))	preservation duration before product degradation, mold growth, etc. was detected (5% alcohol solution, target about 1 year of preservation)	preservation of the algae by the preserving solution (less than 8% alcohol (e.g., 1%, 3%, 5%))	critical preservation solution concentration (preserve for 12 months or less)
O=C([O-])[O-].[Na+].[Na+] [sodium carbonate]	did not preserve the algae	≥ 9 wt %				
benzoate			did not preserve the algae			
CCO [alcohol]		at least 5 wt %		about 2 months	did not preserve the algae	at least 8 wt %
